Assay results as given in patent EP4039094A1, “NOVEL ANTIFUNGAL COMPOUNDS” (Max-Planck-Gesellschaft zur Förderung der Wissenschaften …, priority 2021, dated 2022).
“Also recorded” adds a separate entry of the source.

What was measured:
[1] = test system: U. maydis strains FB1 and FB2; test: Maize seedling infection model, compound added to inoculum, symptom scoring 12 dpi; assay type: in vivo, Ustilago maydis; parameters: key to Severity of disease symptoms First infection / Severity of disease symptoms Second infection: Full virulence is symbolized by (XXXXX); XXX - slightly reduced virulence; XX - reduced virulence; x - strongly reduced virulence; details: for inhibitory effect on virulence of U. maydis: 1 mM, 0.5 mM and 0.1 mM final concentration in the inoculum (Figure 2C); for virulence of U. maydis: 5 mM final concentration in the inoculum of FB1xFB2, first test of ten hits; for Retesting for an inhibition of virulence: U. maydis, retest of four compounds; for Severity of disease symptoms First infection: 4-7 plants per assay
Method: Compounds to be tested were added to the inoculum. Briefly, 6 day old maize seedlings were syringe-infected with about 0.5 ml of fungal suspension in H2O which was amended with the hit compound. The infection and symptoms assessment were done as described in Kämper et al., (Insights from the genome of the biotrophic fungal plant pathogen Ustilago maydis. Nature 2006, 444, 97-101). During the syringe-infection into the stem, the fungal-compound mix is dispersed between the rolled-up leaves and fills the leaf whorl. The compounds were applied only at the stage of mixing with the inoculum, which is subsequently diluted with existing apoplastic fluid, during the infection. In addition, compounds have to reach the Stp complex in biotrophic hyphae from the initial inoculum. […] Since compounds are dissolved in DMSO, the tolerance of U. maydis towards DMSO was tested by adding DMSO to the inoculum at concentrations between 10 and 50% final concentration.
Symptom scoring was done 12 days post infection (dpi) in case of U. maydis seedling infections. Symptom scoring occurred according to the categories described in Table 2. Table 2: Categories of virulence symptoms of U. maydis maize seedling infection (according to Kämper et al., 2006).

U. fabae = test: Uromyces fabae - Vicia faba leaf infection, pustule formation versus DMSO leaflet; assay type: in vivo
Method: The Uromyces fabae - Vicia faba system was established by initially obtaining spores as well as broad bean seeds from the Institut für Phytomedizin at Hohenheim University, Germany. Briefly, Vicia faba plants (Bingenheimer Saatgut Frühe Weißkeimige, G142) were propagated in soil up to about the 4 leaf stage (2-3 plants per pot). Plants were transferred to a chamber lined with wet paper. 100 mg U. fabae spores were mixed with 160 mg skimmed milk powder in 200 ml sterile H2O. Tween 20 was added to a final concentration of 0.01 % and the mixture was stirred in the dark for 45 min. Leaves were sprayed with the suspension on both the upper and lower side and afterwards the entire compartment was fogged with H2O before closure and kept in the dark for 20 h. Plants were then gradually allowed to dry and were placed in a growth chamber under a light regime of 16 h light (24°C) and 8 h (20°C) dark until symptoms developed (10-12 days). Plants were tossed and spores were collected on underlying aluminum foil, and aliquots were frozen at -80°C.
For the infection with compounds added, 10 mg of U. fabae spores were mixed with 16 mg skimmed milk powder in 20 ml sterile H2O. Tween 20 was added to a final concentration of 0.01 % and the mixture was stirred in the dark for 45 min. Compounds were diluted to the desired concentration into in the spore suspension. The controls received the same amount of DMSO. Per bean plant, one pinnate leaf with two leaflets was selected and one of the leaflets was infected with spores + compound and the other with spores + DMSO, respectively. To this end leaves were lightly sprayed with H2O and the 100µl spore solution containing the compound or DMSO respectively was applied on the upper part of the using a small painting brush. Afterwards the plants were placed in a chamber lined with wet paper, fogged with H2O before closure and kept in the dark for 20 h. Plants were then gradually allowed to dry and were placed in a growth chamber under a light regime of 16 h light (24°C) and 8 h (20°C) dark until symptoms developed. The symptoms were quantified by using a previously described method (Sillero and Rubiales, 2002) with minor modifications. Comparisons of pustule formation were done as follow: leaf treated with spores plus DMSO (control) versus leaf treated with spores plus compound in DMSO (test). A single bifurcated leaf was used for this assay, and one half received the control and the other half receive spores with compound. Then it was determined whether pustule formation occurs or is inhibited. Leaves were scored for the development of brownish-red pustules. Only when brownish-red pustules containing powdery spores (urediniospores) appeared on the control leaf an infection was counted as valid. All compounds were tested in three biological replicates. Pictures were taken at 12-14 days post infection.

[2] = 1 mM final concentration in the inoculum of Zea Mays (Figure 2A, B)
[3] = 0.5 mM final concentration in the inoculum
[4] = 1 mM final concentration in the inoculum of Vicia faba
[5] = 5 mM hit compound added to inoculum of FB1xFB2, Zea mays

| Compound | Virulence inhibition of U. maydis [1, 2] | inhibitory effect on virulence of U. maydis [1] | virulence of U. maydis [1] | Retesting for an inhibition of virulence [1] | virulence inhibition of U. fabae (pustule formation) (U. fabae; [3]) | virulence inhibition of U. fabae (pustule formation) (U. fabae; [4]) | Virulence inhibition of U. maydis ([1]; 0.5 mM final concentration, dilution series (Figure 7)) | Virulence inhibition of U. maydis ([1]; 1 mM final concentration, dilution series (Figure 7)) | Virulence inhibition of U. maydis ([1]; 5 mM final concentration, dilution series (Figure 7)) | Severity of disease symptoms First infection [1, 5] | Severity of disease symptoms Second infection ([1]; 5 mM hit compound added to inoculum of FB1xFB2, Zea mays, retest) | Virulence inhibition of U. maydis ([1]; dilution series between 5 mM and 0.01 mM final concentration (Figure 5)) | virulence inhibition of U. fabae (pustule formation) (U. fabae; 0.1 mM final concentration) | inhibitory activity on U. fabae virulence (U. fabae; Figure 6, concentration not given) |
| --- | --- | --- | --- | --- | --- | --- | --- | --- | --- | --- | --- | --- | --- | --- |
| Cc1ccc(-c2c(-c3ccc(C)cc3)[n+]([O-])c3ccccn23)cc1 [Compound 1-A] | able to reduce virulence | concentration dependent inhibitory effect | significant reductions in virulence | confirmed the results | developed symptoms | able to inhibit pustule formation |  |  |  |  |  |  |  |  |
| CC(C)n1ncc2cc(NS(=O)(=O)c3cc(F)ccc3F)cnc21 [Compound 1-B] |  |  | significant reductions in virulence | confirmed the results |  | completely inhibited | negligible | very strong; also recorded: very strongly | very strong; also recorded: very strongly | XX |  |  |  |  |
| Cc1ccc(CSc2nc(=O)n(C3CCCC3)c3c2CCC3)cc1 [Compound 1-C] |  |  | significant reductions in virulence | confirmed the results | inhibited pustule formation | inhibited pustule formation |  |  |  | XXX | XXX | concentration dependent; also recorded: strong inhibitory activity | inhibited pustule formation | strong inhibitory activity |
| [O-][n+]1c(-c2ccc(C(F)(F)F)cc2)c(-c2ccc(C(F)(F)F)cc2)n2ccccc21 [Compound 2-A] | able to reduce virulence | concentration dependent inhibitory effect |  |  | fully inhibit pustule formation | able to inhibit pustule formation |  |  |  |  |  |  |  |  |
| O=[N+]([O-])c1ccc(-c2c(-c3ccccc3)n3ccccc3[n+]2[O-])cc1 [Compound 3-A] | only mildly |  |  |  | developed symptoms | able to inhibit pustule formation |  |  |  |  |  |  |  |  |
